From ChEMBL document CHEMBL2203052, “Synthesis and antimycobacterial activity of calpinactam derivatives” (2012)
Values after ≈ are worked out from the molar mass of the structure shown.

Test system: Mycolicibacterium smegmatis
Assay: Antimycobacterial activity against Mycobacterium smegmatis by liquid microdilution method
Type: functional

Compound | MIC
CC[C@H](C)[C@@H](NC(=O)[C@H](CCC(=O)O)NC(=O)[C@H](Cc1cnc[nH]1)NC(=O)[C@H](CC(C)C)NC(=O)[C@H](N)Cc1ccccc1)C(=O)N[C@H]1CCCCNC1=O | > 50 µg/mL
CC[C@H](C)[C@H](NC(=O)[C@@H](CCC(=O)O)NC(=O)[C@H](Cc1cnc[nH]1)NC(=O)[C@H](CC(C)C)NC(=O)[C@H](N)Cc1ccccc1)C(=O)N[C@H]1CCCCNC1=O | > 50 µg/mL
CC[C@H](C)[C@@H](NC(=O)[C@@H](CCC(=O)O)NC(=O)[C@H](Cc1cnc[nH]1)NC(=O)[C@H](CC(C)C)NC(=O)[C@H](N)Cc1ccccc1)C(=O)N[C@@H]1CCCCNC1=O | > 50 µg/mL
CC[C@H](C)[C@@H](NC(=O)[C@@H](CCC(=O)O)NC(=O)[C@H](Cc1cnc[nH]1)NC(=O)[C@H](CC(C)C)NC(=O)[C@H](N)Cc1ccccc1)C(=O)O | > 50 µg/mL
CC[C@H](C)[C@@H](NC(=O)[C@@H](CCC(=O)O)NC(=O)[C@H](Cc1cnc[nH]1)NC(=O)[C@H](CC(C)C)NC(=O)[C@H](N)Cc1ccccc1)C(=O)N[C@@H](CCCCN)C(=O)O | > 50 µg/mL
CC[C@H](C)[C@@H](NC(=O)[C@@H](CCC(=O)O)NC(=O)[C@H](Cc1cnc[nH]1)NC(=O)[C@H](CC(C)C)NC(=O)[C@H](N)Cc1ccccc1)C(=O)N[C@H]1CCCNC1=O | > 50 µg/mL
CC[C@H](C)[C@@H](NC(=O)[C@@H](CCC(=O)O)NC(=O)[C@H](Cc1cnc[nH]1)NC(=O)[C@H](CC(C)C)NC(=O)[C@H](N)Cc1ccccc1)C(=O)NC1CCCCCC1 | > 50 µg/mL
CC[C@H](C)[C@@H](NC(=O)[C@@H](CCC(=O)O)NC(=O)[C@H](Cc1cnc[nH]1)NC(=O)[C@@H](N)CC(C)C)C(=O)N[C@H]1CCCCNC1=O | > 50 µg/mL
CC[C@H](C)[C@@H](NC(=O)[C@@H](CCC(=O)O)NC(=O)[C@H](Cc1cnc[nH]1)NC(=O)[C@H](CC(C)C)NC(=O)[C@@H](Cc1ccccc1)NC(C)=O)C(=O)N[C@H]1CCCCNC1=O | > 50 µg/mL
CC[C@H](C)[C@@H](NC(=O)[C@@H](CCC(=O)O)NC(=O)[C@@H](Cc1cnc[nH]1)NC(=O)[C@H](CC(C)C)NC(=O)[C@H](N)Cc1ccccc1)C(=O)N[C@H]1CCCCNC1=O | > 50 µg/mL
CC[C@H](C)[C@@H](NC(=O)[C@@H](CCC(=O)O)NC(=O)[C@H](Cc1cnc[nH]1)NC(=O)[C@H](CC(C)C)NC(=O)[C@@H](N)Cc1ccccc1)C(=O)N[C@H]1CCCCNC1=O | > 50 µg/mL
CC[C@H](C)[C@@H](NC(=O)[C@@H](CCC(=O)O)NC(=O)[C@H](Cc1cnc[nH]1)NC(=O)[C@@H](CC(C)C)NC(=O)[C@H](N)Cc1ccccc1)C(=O)N[C@H]1CCCCNC1=O | > 50 µg/mL
CC[C@H](C)[C@@H](NC(=O)[C@@H](CCC(=O)O)NC(=O)[C@H](Cc1cnc[nH]1)NC(=O)[C@H](CC(C)C)NC(=O)[C@H](N)Cc1ccccc1)C(=O)N[C@@H](C)C(=O)O | > 50 µg/mL
CC(C)C[C@H](NC(=O)[C@H](N)Cc1ccccc1)C(=O)N[C@@H](Cc1cnc[nH]1)C(=O)N[C@H](CCC(=O)O)C(=O)N[C@H](C)C(=O)N[C@H]1CCCCNC1=O | > 50 µg/mL
CC[C@H](C)[C@@H](NC(=O)[C@@H](C)NC(=O)[C@H](Cc1cnc[nH]1)NC(=O)[C@H](CC(C)C)NC(=O)[C@H](N)Cc1ccccc1)C(=O)N[C@H]1CCCCNC1=O | 6.25 µg/mL (≈ 8.8 µM)
CC[C@H](C)[C@@H](NC(=O)[C@@H](CCC(=O)O)NC(=O)[C@H](Cc1cnc[nH]1)NC(=O)[C@H](C)NC(=O)[C@H](N)Cc1ccccc1)C(=O)N[C@H]1CCCCNC1=O | > 50 µg/mL
CC[C@H](C)[C@@H](NC(=O)[C@@H](CCC(=O)O)NC(=O)[C@H](C)NC(=O)[C@H](CC(C)C)NC(=O)[C@H](N)Cc1ccccc1)C(=O)N[C@H]1CCCCNC1=O | > 50 µg/mL
CC[C@H](C)[C@@H](NC(=O)[C@@H](CCC(=O)O)NC(=O)[C@H](Cc1cnc[nH]1)NC(=O)[C@H](CC(C)C)NC(=O)[C@@H](C)N)C(=O)N[C@H]1CCCCNC1=O | > 50 µg/mL
CC[C@H](C)[C@@H](NC(=O)[C@@H](CCC(=O)O)NC(=O)[C@H](Cc1cnc[nH]1)NC(=O)[C@H](CC(C)C)NC(=O)[C@H](N)Cc1ccccc1)C(=O)N[C@H]1CCCCNC1=O [CALPINACTAM] | 0.78 µg/mL (≈ 1.02 µM)
